Experimental data taken from the NIST ThermoML archive (doi:10.1021/je4009415).

Experiments:
[1] = xn = mol fraction of the nth substance listed; details: Liquid, Vibrating tube method
[2] = refractive index (Na D-line) (dimensionless); details: 298.15 K; 101.33 kPa; Liquid; Standard Abbe refractometry
[3] = Liquid; for mass density: Vibrating tube method; for vapor or sublimation pressure: Ebulliometric method (Recirculating still)

CCCCC [pentane] + CCC(=O)OC
[1], 101 kPa, x2 = 0
Details	mass density [kg/m3]
288.15 K	630.78
298.15 K	620.91

CCCCCCC [heptane] + CCC(=O)OC
[1], x2 = 0
Details	mass density [kg/m3]
288.15 K	688.16
298.15 K	679.62
308.15 K	670.96
318.15 K	662.33
328.15 K	653.61

CCCCCCC [heptane] + CCOC(=O)CC
[1], x2 = 0
Details	mass density [kg/m3]
288.15 K	688.16
298.15 K	679.62
308.15 K	670.96
318.15 K	662.33
328.15 K	653.61

CCCCCCC [heptane]
Details	refractive index
[2]	1.3853

[3]
Details	mass density [kg/m3]	vapor or sublimation pressure [kPa]
288.15 K	688.16	–
298.15 K	679.62	–
308.15 K	670.96	–
318.15 K	662.33	–
328.15 K	653.61	–
371.38 K	–	101.32

CCC(=O)OC [methyl propanoate] + CCCCC
mass density [kg/m3], [1], 101 kPa
Details	288.15 K	298.15 K
x1 = 0.0597	644.23	–
x1 = 0.0641	–	635.16
x1 = 0.0925	651.9	–
x1 = 0.0938	–	642.1
x1 = 0.1482	–	654.98
x1 = 0.1507	665.97	–
x1 = 0.204	679.21	–
x1 = 0.2099	–	670.19
x1 = 0.2574	–	682.36
x1 = 0.2614	693.95	–
x1 = 0.3127	707.38	–
x1 = 0.3135	–	696.99
x1 = 0.3382	714.27	–
x1 = 0.3389	–	703.72
x1 = 0.3927	729.16	–
x1 = 0.3942	–	718.75
x1 = 0.442	743.09	–
x1 = 0.4459	–	733.12
x1 = 0.4985	759.2	–
x1 = 0.4999	–	748.56
x1 = 0.5461	773.25	–
x1 = 0.5478	–	762.56
x1 = 0.5921	–	775.9
x1 = 0.5926	787.12	–
x1 = 0.6407	801.96	–
x1 = 0.6434	–	791.33
x1 = 0.6898	–	805.83
x1 = 0.69	817.19	–
x1 = 0.7559	–	826.88
x1 = 0.7581	839.01	–
x1 = 0.8051	–	842.74
x1 = 0.8072	855.11	–
x1 = 0.8487	868.74	–
x1 = 0.8499	–	857.54
x1 = 0.8891	882.39	–
x1 = 0.8915	–	871.51
x1 = 0.9538	904.73	–
x1 = 0.9601	–	894.98
x1 = 1	921.21	909.1

CCCCC [pentane] + CCOC(=O)CC
[1], x2 = 0
Details	mass density [kg/m3]
288.15 K	630.78
298.15 K	620.9

CCCCCCCCC [nonane] + CCC(=O)OC
[1], x2 = 0
Details	mass density [kg/m3]
288.15 K	721.65
298.15 K	713.85
308.15 K	705.96
318.15 K	698.06
328.15 K	690.17

CCOC(=O)CC [ethyl propanoate]
Details	refractive index
[2]	1.3811

[3]
Details	mass density [kg/m3]	vapor or sublimation pressure [kPa]
288.15 K	895.58	–
298.15 K	884.15	–
308.15 K	872.62	–
318.15 K	861.08	–
328.15 K	849.41	–
348.07 K	–	45
349.55 K	–	47.5
350.96 K	–	50
352.34 K	–	52.5
353.66 K	–	55
354.91 K	–	57.5
356.15 K	–	60
357.32 K	–	62.5
358.48 K	–	65
359.57 K	–	67.5
360.66 K	–	70
361.72 K	–	72.5
362.74 K	–	75
363.71 K	–	77.5
364.69 K	–	80
365.63 K	–	82.5
366.55 K	–	85
367.47 K	–	87.5
368.35 K	–	90
369.21 K	–	92.5
370.06 K	–	95
370.87 K	–	97.5
371.73 K	–	100
372.09 K	–	101.32
372.18 K	–	101.32
373.31 K	–	105
374.84 K	–	110
376.29 K	–	115
377.7 K	–	120
379.08 K	–	125
380.4 K	–	130
381.67 K	–	135
382.91 K	–	140
384.15 K	–	145
385.32 K	–	150
386.47 K	–	155
387.6 K	–	160
388.69 K	–	165
389.77 K	–	170
390.81 K	–	175
391.83 K	–	180
392.85 K	–	185
393.81 K	–	190
394.77 K	–	195
395.72 K	–	200
396.64 K	–	205
397.55 K	–	210
398.43 K	–	215
399.31 K	–	220
400.17 K	–	225
401 K	–	230
401.83 K	–	235
402.65 K	–	240
403.46 K	–	245
404.25 K	–	250
405.04 K	–	255
405.79 K	–	260
406.56 K	–	265
407.3 K	–	270
408.03 K	–	275
408.75 K	–	280
